Test results as given in patent US10344019B2 (priority 2010, dated 2019).
Where two headings read alike, the source gives them in different places.

Columns and labels:
Type in all cases: cell-based
[1] = system: HCV 1a RLuc cells (dicistronic genotype 1a H77 replicon, RLuc reporter); experiment: microbe, parasite or virus in culture; conditions: Hepatitis C virus, read-out: 1a
Outline: (§1)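 Replicons used: genotype 1b Con1, 1a H77, 2a JFH-1, and a 2a JFH-1 chimera with J6-strain NS5A (M31 present), all dicistronic.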

[2] = system: HCV 1b RLuc cells (dicistronic genotype 1b Con1 replicon, RLuc reporter); experiment: microbe, parasite or virus in culture; conditions: Hepatitis C virus, read-out: 1b (nM)
Outline: as §1

[3] = system: HCV 2a JFH-1 Rluc cells (dicistronic genotype 2a JFH-1 replicon, RLuc reporter); experiment: microbe, parasite or virus in culture; conditions: Hepatitis C virus, read-out: 2a JFH
Outline: as §1

[4] = system: HCV 2b Rluc cells (NS5A chimeric genotype 2a JFH-1 replicon with genotype 2b MD2b-1 NS5A gene, M31 present); experiment: microbe, parasite or virus in culture; conditions: Hepatitis C virus, read-out: 2b
Outline: (§2)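 Replicon cells stably carrying the listed RLuc-encoding dicistronic replicons were seeded and treated with DMSO serial dilutions of compound (10 mM stocks) diluted into culture medium. After 72 h, cells were lysed and Renilla luciferase activity measured. EC50 was derived by non-linear regression.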

[5] = system: HCV 3a RLuc cells (NS5A chimeric genotype 1b Con1 replicon with consensus genotype 3a NS5A gene); experiment: microbe, parasite or virus in culture; conditions: Hepatitis C virus
Outline: as §2

[6] = system: HCV 4a Rluc cells (NS5A chimeric genotype 1b Con1 replicon with genotype 4a NS5A gene); experiment: microbe, parasite or virus in culture; conditions: Hepatitis C virus, read-out: 4a
Outline: as §2

[7] = system: HCV 2a Rluc cells (NS5A chimeric genotype 2a JFH-1 replicon with genotype 2a J6 strain NS5A gene, M31 present); experiment: HCV replicon reporter assay, genotype 2a J6 (M31 present); conditions: Hepatitis C virus, read-out: 2a J6
Outline: as §1

[8] = read-out: 3a, genotype 3a replicon
[9] = genotype 2a JFH-1 RLuc replicon
[10] = read-out: 3a, genotype 3a NS5A chimeric replicon
[11] = 72 h, Table 1, genotype 1a H77 replicon, 72 hours
[12] = 72 h, Table 1, genotype 2a JFH-1 replicon, 72 hours
[13] = read-out: 3a, Table 1, genotype 3a NS5A chimeric replicon

SMILES	EC50 ([1]; 72 h, Table 2, genotype 1a H77 replicon, 72 hours) [nM]	EC50 ([2]; 72 h) [nM]	EC50 ([3]; 72 h, Table 2, genotype 2a JFH-1 replicon, 72 hours) [nM]	EC50 [4] [nM]	EC50 ([5]; read-out: 3a, Table 2, genotype 3a NS5A chimeric replicon) [nM]	EC50 [6] [nM]	EC50 [7] [nM]	EC50 ([1]; genotype 1a replicon) [nM]	EC50 [2] [nM]	EC50 ([3]; genotype 2a JFH-1 replicon) [nM]	EC50 [5, 8] [nM]	EC50 ([1]; genotype 1a H77 RLuc replicon) [nM]	EC50 [3, 9] [nM]	EC50 [5, 10] [nM]	EC50 [1, 11] [nM]	EC50 [3, 12] [nM]	EC50 [5, 13] [nM]
COC(=O)N[C@H](C(=O)N1CCC[C@H]1c1nc2ccc3cc(-c4ccc5c(ccc6nc([C@@H]7[C@H]8CC[C@H](C8)N7C(=O)[C@@H](NC(=O)OC)C7CCOCC7)[nH]c65)c4)ccc3c2[nH]1)C(C)C [Example 95]	0.001 to 0.999	0.028	0.001 to 0.999	1 to 44	0.001 to 0.99	0.001 to 0.99	0.001 to 0.999										
COC[C@H]1C[C@@H](c2nc3ccc4cc(-c5ccc(-c6cnc([C@@H]7CCCN7C(=O)[C@H](NC(=O)OC)c7ccccc7)[nH]6)cc5)ccc4c3[nH]2)N(C(=O)[C@@H](NC(=O)OC)C(C)C)C1 [Example 415]				0.001 to 0.999		0.001 to 0.99	0.001 to 0.999	0.001 to 0.999	0.034	0.001 to 0.999	0.001 to 0.99						
COC(=O)N[C@H](C(=O)N1CCC[C@H]1c1ncc(-c2ccc3c(c2)COc2c-3ccc3c2ccc2nc([C@@H]4CCCN4C(=O)[C@@H](NC(=O)OC)C(C)C)[nH]c23)[nH]1)C(C)C [Example 400]				> 44		0.001 to 0.99	> 44	0.001 to 0.999	0.017	0.001 to 0.999	0.001 to 0.99						
COC(=O)N[C@H](C(=O)N1CCC[C@H]1c1ncc(-c2cc3c4c(c2)OCc2cc(-c5cnc([C@@H]6CCCN6C(=O)[C@H](NC(=O)OC)c6ccccc6)[nH]5)cc(c2-4)OC3)[nH]1)C1CCOCC1 [Example 364]				0.001 to 0.999		0.001 to 0.99	0.001 to 0.999	0.001 to 0.999	0.335	0.001 to 0.999	0.001 to 0.99						
COC[C@H]1C[C@@H](c2ncc(-c3ccc(-c4ccc5c(ccc6nc([C@@H]7CCCN7C(=O)[C@@H](NC(=O)OC)C(C)C)[nH]c65)c4)cc3)[nH]2)N(C(=O)[C@H](NC(=O)C2CC2)c2ccccc2)C1 [Example 456]				0.001 to 0.999		0.001 to 0.99	0.001 to 0.999	0.001 to 0.999	0.04	0.001 to 0.999	0.001 to 0.99						
COCCC(=O)N[C@@H](C(=O)N1CCC[C@H]1c1ncc(-c2cc3c4c(c2)OCc2cc(-c5cnc([C@@H]6CCCN6C(=O)[C@H](NC(=O)CCOC)c6ccccc6)[nH]5)cc(c2-4)OC3)[nH]1)c1ccccc1 [Example 480]				0.001 to 0.999		0.001 to 0.99	1 to 44	0.001 to 0.999	0.684	0.001 to 0.999	0.001 to 0.99						
COC(=O)N[C@H](C(=O)N1CCC[C@H]1c1nc2ccc3cc(-c4ccc5c(ccc6nc([C@@H]7C[C@H](SC)CN7C(=O)[C@@H](NC(=O)OC)C(C)C)[nH]c65)c4)ccc3c2[nH]1)C(C)C [Example 515]				1 to 44		0.001 to 0.99	0.001 to 0.999		0.047			0.001 to 0.999	0.001 to 0.999	0.001 to 0.99			
COC(=O)N[C@H](C(=O)N1CCC[C@H]1c1ncc(-c2ccc3c4c(ccc3c2)-c2ccc(-c3cnc([C@@H]5CCCN5C(=O)[C@H](NC(=O)OC)c5ccccc5)[nH]3)cc2CO4)[nH]1)[C@@H](C)OC [Example 16]		0.011		1 to 44		0.001 to 0.99	1 to 44								0.001 to 0.999	0.001 to 0.999	0.001 to 0.99
COC(=O)N[C@H](C(=O)N1CCC[C@H]1c1nc(Cl)c(-c2ccc(-c3ccc4c(ccc5nc([C@@H]6[C@H]7CC[C@H](C7)N6C(=O)[C@@H](NC(=O)OC)C(C)C)[nH]c54)c3)cc2)[nH]1)C(C)C [Example 386]				> 44		0.001 to 0.99	> 44	0.001 to 0.999	0.015	0.001 to 0.999	0.001 to 0.99						
COCCOC(=O)N[C@@H](C(=O)N1CCC[C@H]1c1ncc(-c2cc3c4c(c2)OCc2cc(-c5cnc([C@@H]6CCCN6C(=O)[C@H](NC(=O)OCCOC)c6ccccc6)[nH]5)cc(c2-4)OC3)[nH]1)c1ccccc1 [Example 448]				0.001 to 0.999		0.001 to 0.99	1 to 44	0.001 to 0.999	0.459	0.001 to 0.999	0.001 to 0.99						
O=C(N[C@@H](C(=O)N1CCC[C@H]1c1ncc(-c2cc3c4c(c2)OCc2cc(-c5cnc([C@@H]6CCCN6C(=O)[C@H](NC(=O)C6CCC6)c6ccccc6)[nH]5)cc(c2-4)OC3)[nH]1)c1ccccc1)C1CCC1 [Example 449]				0.001 to 0.999		0.001 to 0.99	0.001 to 0.999	0.001 to 0.999	0.139	0.001 to 0.999	0.001 to 0.99						
COC(=O)N[C@H](C(=O)N1CCC[C@H]1c1ncc(-c2ccc3c4c(ccc3c2)-c2ccc(-c3cnc([C@@H]5CCCN5C(=O)[C@H](NC(=O)OC)c5ccccc5)[nH]3)cc2CO4)[nH]1)C1CCOCC1 [Example 13]		0.015		0.001 to 0.999		0.001 to 0.99	1 to 44								0.001 to 0.999	0.001 to 0.999	0.001 to 0.99
COC(=O)N[C@H](C(=O)N1CC2(C[C@H]1c1nc3ccc4cc(-c5ccc6c(ccc7nc([C@@H]8C[C@H]9C[C@H]9N8C(=O)[C@H](NC(=O)OC)c8ccccc8)[nH]c76)c5)ccc4c3[nH]1)OCCO2)C(C)C [Example 356]				0.001 to 0.999		0.001 to 0.99	0.001 to 0.999	0.001 to 0.999	0.022	0.001 to 0.999	0.001 to 0.99						
COC(=O)N[C@H](C(=O)N1CCC[C@H]1c1ncc(-c2ccc3c(c2)COc2c-3ccc3cc(-c4cnc([C@@H]5CCCN5C(=O)[C@H](NC(=O)OC)c5ccccc5)[nH]4)ccc23)[nH]1)C(C)C [Example 2]		0.005		> 44		0.001 to 0.99	> 44								0.001 to 0.999	0.001 to 0.999	0.001 to 0.99
COC(=O)N[C@H](C(=O)N1CC2(C[C@H]1c1nc3ccc4cc(-c5ccc(-c6cnc([C@@H]7CCCN7C(=O)[C@H](NC(=O)OC)c7ccccc7)[nH]6)cc5)ccc4c3[nH]1)OCCO2)C(C)C [Example 411]				1 to 44		0.001 to 0.99	1 to 44	0.001 to 0.999	0.034	0.001 to 0.999	0.001 to 0.99						
CN(C)CC(=O)N[C@@H](C(=O)N1CCC[C@H]1c1ncc(-c2cc3c4c(c2)OCc2cc(-c5cnc([C@@H]6CCCN6C(=O)[C@H](NC(=O)CN(C)C)c6ccccc6)[nH]5)cc(c2-4)OC3)[nH]1)c1ccccc1 [Example 462]				1 to 44		1 to 4.99	1 to 44	1 to 44	8.76	0.001 to 0.999	0.001 to 0.99						
COC[C@H]1C[C@@H](c2nc3ccc4cc(-c5ccc6c(ccc7nc([C@@H]8[C@@H]9CC[C@@H](C9)N8C(=O)[C@H](NC(=O)OC)c8ccccc8)[nH]c76)c5)ccc4c3[nH]2)N(C(=O)[C@@H](NC(=O)OC)C(C)C)C1 [Example 452]				1 to 44		0.001 to 0.99	0.001 to 0.999	0.001 to 0.999	0.047	0.001 to 0.999	0.001 to 0.99						
COC(=O)N[C@H](C(=O)N1CCC[C@H]1c1nc2c([nH]1)-c1cc3c(cc1CC2)-c1ccc(-c2cnc([C@@H]4CCCN4C(=O)[C@H](NC(=O)C4CC4)c4ccccc4)[nH]2)cc1CO3)C(C)C [Example 494]				0.001 to 0.999		0.001 to 0.99	0.001 to 0.999		0.021			0.001 to 0.999	0.001 to 0.999	0.001 to 0.99			
